# Assay results from ChEMBL document CHEMBL1144323, “Reversal of anticancer drug resistance by COTC based on intracellular glutathione and glyoxalase I” (Bioorg Med Chem Lett, 2005).
# Columns and labels:
# Homo sapiens = species: Homo sapiens; experiment: Effect of COTC on GSH level in human pancreatic adenocarcinoma cell was determined at 30 ug/mL of COTC; assay type: functional
# Lactoylglutathione lyase = Lactoylglutathione lyase (Homo sapiens, UniProt Q04760); experiment: Inhibitory constant against Glyoxalase I
# Lactoylglutathione lyase, sequence (Q04760 whole entry): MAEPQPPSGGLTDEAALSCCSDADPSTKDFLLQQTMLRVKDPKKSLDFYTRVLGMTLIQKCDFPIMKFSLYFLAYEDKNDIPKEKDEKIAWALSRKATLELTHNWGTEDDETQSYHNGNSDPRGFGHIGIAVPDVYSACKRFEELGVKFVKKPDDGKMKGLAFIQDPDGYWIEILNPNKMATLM
SMILES,Decrease (Homo sapiens),Ki (Lactoylglutathione lyase)
C/C=C/C(=O)OCC1=C[C@@H](O)[C@@H](O)[C@@H](O)C1=O,40%,–
NC(CCC(=O)NC(CSCC1=C[C@@H](O)[C@@H](O)[C@@H](O)C1=O)C(=O)NCC(=O)O)C(=O)O (some centres not stated),–,183 µM
